Experimental data: PubChem BioAssay (NCI)
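In this assay, cells in 96-well plates receive the compound at five concentrations for 48 hours. Endpoints are linearly interpolated between the surrounding concentrations. At the TGI there is no net growth.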

Legend:
Experiment in all cases: NCI tumour cell line growth inhibition, 48 h
786-0 renal = test system: 786-0 renal
A498 renal = test system: A498 renal
A549 NSCLC = test system: A549 NSCLC
ACHN renal = test system: ACHN renal
CAKI-1 renal = test system: CAKI-1 renal
CCRF-CEM leukemia = test system: CCRF-CEM leukemia
DLD-1 colon = test system: DLD-1 colon
DMS 114 small cell lung = test system: DMS 114 small cell lung
DMS 273 small cell lung = test system: DMS 273 small cell lung
EKVX NSCLC = test system: EKVX NSCLC
HL-60(TB) leukemia = test system: HL-60(TB) leukemia
HOP-62 NSCLC = test system: HOP-62 NSCLC
HOP-92 NSCLC = test system: HOP-92 NSCLC
HT29 colon = test system: HT29 colon
K-562 leukemia = test system: K-562 leukemia
KM12 colon = test system: KM12 colon
KM20L2 colon = test system: KM20L2 colon
LOX IMVI melanoma = test system: LOX IMVI melanoma
LXFL 529 NSCLC = test system: LXFL 529 NSCLC
M19-MEL melanoma = test system: M19-MEL melanoma
MALME-3M melanoma = test system: MALME-3M melanoma
MOLT-4 leukemia = test system: MOLT-4 leukemia
NCI-H226 lung = test system: NCI-H226 lung
NCI-H23 lung = test system: NCI-H23 lung
NCI-H460 lung = test system: NCI-H460 lung
OVCAR-4 ovarian = test system: OVCAR-4 ovarian
OVCAR-5 ovarian = test system: OVCAR-5 ovarian
OVCAR-8 ovarian = test system: OVCAR-8 ovarian
RXF 393 renal = test system: RXF 393 renal
RXF-631 renal = test system: RXF-631 renal
SF-268 CNS = test system: SF-268 CNS
SF-295 CNS = test system: SF-295 CNS
SF-539 CNS = test system: SF-539 CNS
SK-MEL-2 melanoma = test system: SK-MEL-2 melanoma
SK-MEL-28 melanoma = test system: SK-MEL-28 melanoma
SK-MEL-5 melanoma = test system: SK-MEL-5 melanoma
SK-OV-3 ovarian = test system: SK-OV-3 ovarian
SN12C renal = test system: SN12C renal
SNB-19 CNS = test system: SNB-19 CNS
SNB-78 CNS = test system: SNB-78 CNS
SR leukemia = test system: SR leukemia
SW-620 colon = test system: SW-620 colon
TK-10 renal = test system: TK-10 renal
U251 CNS = test system: U251 CNS
UACC-257 melanoma = test system: UACC-257 melanoma
UO-31 renal = test system: UO-31 renal
XF 498 CNS = test system: XF 498 CNS
COLO 205 colon = test system: COLO 205 colon
HCC-2998 colon = test system: HCC-2998 colon
HCT-116 colon = test system: HCT-116 colon
HCT-15 colon = test system: HCT-15 colon
HOP-18 NSCLC = test system: HOP-18 NSCLC
IGROV1 ovarian = test system: IGROV1 ovarian
M14 melanoma = test system: M14 melanoma
NCI-H522 lung = test system: NCI-H522 lung
OVCAR-3 ovarian = test system: OVCAR-3 ovarian
RPMI-8226 leukemia = test system: RPMI-8226 leukemia
SNB-75 CNS = test system: SNB-75 CNS
UACC-62 melanoma = test system: UACC-62 melanoma

COc1cc2ccc(CC#N)cc2cc1OC
TGI (786-0 renal): > 100 µM
TGI (A498 renal): > 100 µM
TGI (A549 NSCLC): > 100 µM
TGI (ACHN renal): > 100 µM
TGI (CAKI-1 renal): > 100 µM
TGI (CCRF-CEM leukemia): > 100 µM
TGI (DLD-1 colon): > 100 µM
TGI (DMS 114 small cell lung): > 100 µM
TGI (DMS 273 small cell lung): > 100 µM
TGI (EKVX NSCLC): > 100 µM
TGI (HL-60(TB) leukemia): > 100 µM
TGI (HOP-62 NSCLC): > 100 µM
TGI (HOP-92 NSCLC): > 100 µM
TGI (HT29 colon): > 100 µM
TGI (K-562 leukemia): > 100 µM
TGI (KM12 colon): > 100 µM
TGI (KM20L2 colon): > 100 µM
TGI (LOX IMVI melanoma): > 100 µM
TGI (LXFL 529 NSCLC): > 100 µM
TGI (M19-MEL melanoma): > 100 µM
TGI (MALME-3M melanoma): > 100 µM
TGI (MOLT-4 leukemia): > 100 µM
TGI (NCI-H226 lung): > 100 µM
TGI (NCI-H23 lung): > 100 µM
TGI (NCI-H460 lung): > 100 µM
TGI (OVCAR-4 ovarian): > 100 µM
TGI (OVCAR-5 ovarian): > 100 µM
TGI (OVCAR-8 ovarian): > 100 µM
TGI (RXF 393 renal): > 100 µM
TGI (RXF-631 renal): > 100 µM
TGI (SF-268 CNS): > 100 µM
TGI (SF-295 CNS): > 100 µM
TGI (SF-539 CNS): > 100 µM
TGI (SK-MEL-2 melanoma): > 100 µM
TGI (SK-MEL-28 melanoma): > 100 µM
TGI (SK-MEL-5 melanoma): > 100 µM
TGI (SK-OV-3 ovarian): > 100 µM
TGI (SN12C renal): > 100 µM
TGI (SNB-19 CNS): > 100 µM
TGI (SNB-78 CNS): > 100 µM
TGI (SR leukemia): > 100 µM
TGI (SW-620 colon): > 100 µM
TGI (TK-10 renal): > 100 µM
TGI (U251 CNS): > 100 µM
TGI (UACC-257 melanoma): > 100 µM
TGI (UO-31 renal): > 100 µM
TGI (XF 498 CNS): > 100 µM

C(=C1\CCC/C(=C/c2ccccc2)C1=NNc1ccccc1)/c1ccccc1
TGI (786-0 renal): > 100 µM
TGI (A498 renal): > 100 µM
TGI (A549 NSCLC): > 100 µM
TGI (ACHN renal): > 100 µM
TGI (CCRF-CEM leukemia): > 100 µM
TGI (COLO 205 colon): > 100 µM
TGI (DLD-1 colon): > 100 µM
TGI (DMS 114 small cell lung): > 100 µM
TGI (DMS 273 small cell lung): > 100 µM
TGI (EKVX NSCLC): > 100 µM
TGI (HCC-2998 colon): > 100 µM
TGI (HCT-116 colon): > 100 µM
TGI (HCT-15 colon): > 100 µM
TGI (HL-60(TB) leukemia): > 100 µM
TGI (HOP-18 NSCLC): > 100 µM
TGI (HOP-62 NSCLC): > 100 µM
TGI (HOP-92 NSCLC): > 100 µM
TGI (HT29 colon): > 100 µM
TGI (IGROV1 ovarian): > 100 µM
TGI (K-562 leukemia): > 100 µM
TGI (KM12 colon): > 100 µM
TGI (KM20L2 colon): > 100 µM
TGI (LOX IMVI melanoma): > 100 µM
TGI (LXFL 529 NSCLC): > 100 µM
TGI (M14 melanoma): > 100 µM
TGI (M19-MEL melanoma): > 100 µM
TGI (MALME-3M melanoma): > 100 µM
TGI (MOLT-4 leukemia): > 100 µM
TGI (NCI-H23 lung): > 100 µM
TGI (NCI-H460 lung): > 100 µM
TGI (NCI-H522 lung): > 100 µM
TGI (OVCAR-3 ovarian): > 100 µM
TGI (OVCAR-4 ovarian): > 100 µM
TGI (OVCAR-5 ovarian): > 100 µM
TGI (OVCAR-8 ovarian): > 100 µM
TGI (RPMI-8226 leukemia): > 100 µM
TGI (RXF 393 renal): > 100 µM
TGI (RXF-631 renal): > 100 µM
TGI (SF-268 CNS): > 100 µM
TGI (SF-295 CNS): > 100 µM
TGI (SF-539 CNS): > 100 µM
TGI (SK-MEL-2 melanoma): > 100 µM
TGI (SK-MEL-28 melanoma): > 100 µM
TGI (SK-MEL-5 melanoma): > 100 µM
TGI (SK-OV-3 ovarian): > 100 µM
TGI (SN12C renal): > 100 µM
TGI (SNB-19 CNS): > 100 µM
TGI (SNB-75 CNS): > 100 µM
TGI (SNB-78 CNS): > 100 µM
TGI (SW-620 colon): > 100 µM
TGI (TK-10 renal): > 100 µM
TGI (U251 CNS): > 100 µM
TGI (UACC-257 melanoma): > 100 µM
TGI (UACC-62 melanoma): > 100 µM
TGI (UO-31 renal): > 100 µM

O=C1C2Cc3ccccc3CN2C(=O)N1CN1CCN(CN2C(=O)C3Cc4ccccc4CN3C2=O)CC1 (stereo not given)
TGI (786-0 renal): > 100 µM
TGI (A498 renal): > 100 µM
TGI (A549 NSCLC): > 100 µM
TGI (ACHN renal): > 100 µM
TGI (CAKI-1 renal): > 100 µM
TGI (CCRF-CEM leukemia): > 100 µM
TGI (COLO 205 colon): > 100 µM
TGI (DLD-1 colon): > 100 µM
TGI (DMS 114 small cell lung): > 100 µM
TGI (DMS 273 small cell lung): > 100 µM
TGI (EKVX NSCLC): > 100 µM
TGI (HCC-2998 colon): > 100 µM
TGI (HCT-15 colon): > 100 µM
TGI (HL-60(TB) leukemia): > 100 µM
TGI (HOP-18 NSCLC): > 100 µM
TGI (HOP-62 NSCLC): > 100 µM
TGI (HOP-92 NSCLC): > 100 µM
TGI (HT29 colon): > 100 µM
TGI (IGROV1 ovarian): > 100 µM
TGI (K-562 leukemia): > 100 µM
TGI (KM12 colon): > 100 µM
TGI (KM20L2 colon): > 100 µM
TGI (LOX IMVI melanoma): > 100 µM
TGI (M19-MEL melanoma): > 100 µM
TGI (MALME-3M melanoma): > 100 µM
TGI (MOLT-4 leukemia): > 100 µM
TGI (NCI-H226 lung): > 100 µM
TGI (NCI-H23 lung): > 100 µM
TGI (NCI-H460 lung): > 100 µM
TGI (NCI-H522 lung): > 100 µM
TGI (OVCAR-3 ovarian): > 100 µM
TGI (OVCAR-5 ovarian): > 100 µM
TGI (OVCAR-8 ovarian): > 100 µM
TGI (RPMI-8226 leukemia): > 100 µM
TGI (RXF 393 renal): > 100 µM
TGI (RXF-631 renal): > 100 µM
TGI (SF-268 CNS): > 100 µM
TGI (SF-295 CNS): > 100 µM
TGI (SF-539 CNS): > 100 µM
TGI (SK-MEL-2 melanoma): > 100 µM
TGI (SK-MEL-28 melanoma): > 100 µM
TGI (SK-MEL-5 melanoma): > 100 µM
TGI (SK-OV-3 ovarian): > 100 µM
TGI (SN12C renal): > 100 µM
TGI (SNB-19 CNS): > 100 µM
TGI (SNB-75 CNS): > 100 µM
TGI (SNB-78 CNS): > 100 µM
TGI (SW-620 colon): > 100 µM
TGI (TK-10 renal): > 100 µM
TGI (U251 CNS): > 100 µM
TGI (UACC-257 melanoma): > 100 µM
TGI (UACC-62 melanoma): > 100 µM
TGI (UO-31 renal): > 100 µM

COc1ccc(CNc2nc3ccccc3nc2-c2cccs2)cc1OC
TGI (786-0 renal): > 100 µM
TGI (A549 NSCLC): > 100 µM
TGI (ACHN renal): > 100 µM
TGI (CCRF-CEM leukemia): > 100 µM
TGI (COLO 205 colon): > 100 µM
TGI (DMS 273 small cell lung): > 100 µM
TGI (EKVX NSCLC): > 100 µM
TGI (HCC-2998 colon): > 100 µM
TGI (HCT-116 colon): > 100 µM
TGI (HCT-15 colon): > 100 µM
TGI (HL-60(TB) leukemia): > 100 µM
TGI (HOP-18 NSCLC): > 100 µM
TGI (HOP-62 NSCLC): > 100 µM
TGI (HOP-92 NSCLC): 51.3 µM
TGI (HT29 colon): > 100 µM
TGI (K-562 leukemia): > 100 µM
TGI (KM20L2 colon): > 100 µM
TGI (LXFL 529 NSCLC): > 100 µM
TGI (M19-MEL melanoma): > 100 µM
TGI (MALME-3M melanoma): > 100 µM
TGI (MOLT-4 leukemia): > 100 µM
TGI (NCI-H226 lung): > 100 µM
TGI (NCI-H23 lung): > 100 µM
TGI (NCI-H460 lung): > 100 µM
TGI (OVCAR-3 ovarian): > 100 µM
TGI (OVCAR-5 ovarian): > 100 µM
TGI (OVCAR-8 ovarian): > 100 µM
TGI (RPMI-8226 leukemia): > 100 µM
TGI (RXF 393 renal): > 100 µM
TGI (RXF-631 renal): > 100 µM
TGI (SF-268 CNS): > 100 µM
TGI (SF-295 CNS): > 100 µM
TGI (SF-539 CNS): > 100 µM
TGI (SK-MEL-2 melanoma): > 100 µM
TGI (SK-MEL-28 melanoma): > 100 µM
TGI (SN12C renal): > 100 µM
TGI (SNB-19 CNS): > 100 µM
TGI (SNB-78 CNS): > 100 µM
TGI (SR leukemia): > 100 µM
TGI (SW-620 colon): > 100 µM
TGI (TK-10 renal): > 100 µM
TGI (U251 CNS): > 100 µM
TGI (UACC-257 melanoma): > 100 µM
TGI (UO-31 renal): > 100 µM
TGI (XF 498 CNS): 59.6 µM
